According to patent publication US10201617B2, “3-substituted piperidine-2, 6-diones and non-covalent complexes with albumin” (Zhuhai Beihai Biotech Co., Ltd., priority 2014, dated 2019):

Tests used:
[1] = Persistence in plasma: incubation with human plasma at 37° C., LC-MS/MS; assay type: in vitro ADME; conditions: for Peak Area Ratio (Analyte/incubation sample): Human Plasma
Description: Test compounds and control (procaine) were incubated at a concentration of 10 μM with human plasma. […]
After quenching by acetonitrile, the plates were capped, vortexed, and centrifuged at 3000 rpm for 10 minutes. The supernatant was injected into LC-MS/MS.

[2] = Persistence control: incubation in PBS buffer (pH 7.4) at 37° C., LC-MS/MS; assay type: physicochemical; conditions: for Peak Area Ratio (Analyte/incubation sample): PBS Buffer, 24 hr; for % Remaining after 24-hr Incubation at 37° C.: PBS buffer
CYP1A2 = biological target: T1, CYP1A2 (Homo sapiens, UniProt P05177); conditions: cited from earlier work
T1 sequence (P05177 1-516): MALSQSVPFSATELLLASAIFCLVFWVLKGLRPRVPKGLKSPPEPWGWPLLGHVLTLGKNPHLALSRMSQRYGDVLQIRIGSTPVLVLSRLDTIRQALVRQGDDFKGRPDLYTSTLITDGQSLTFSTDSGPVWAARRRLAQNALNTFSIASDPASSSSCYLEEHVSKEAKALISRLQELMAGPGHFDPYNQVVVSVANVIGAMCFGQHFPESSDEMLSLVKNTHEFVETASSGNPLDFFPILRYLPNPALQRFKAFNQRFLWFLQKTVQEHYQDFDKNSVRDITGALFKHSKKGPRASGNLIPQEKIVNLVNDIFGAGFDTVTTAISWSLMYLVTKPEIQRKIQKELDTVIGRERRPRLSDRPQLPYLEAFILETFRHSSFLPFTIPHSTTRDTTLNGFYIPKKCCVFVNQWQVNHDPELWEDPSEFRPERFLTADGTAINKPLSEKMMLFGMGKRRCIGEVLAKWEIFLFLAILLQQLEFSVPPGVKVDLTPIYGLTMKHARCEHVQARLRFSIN

[3] = regardless of pH; cited from earlier work
CYP3A = conditions: cited from earlier work

| SMILES | Peak Area Ratio (Analyte/incubation sample) ([1]; 0 hr, Replicate 1) | Peak Area Ratio (Analyte/incubation sample) ([1]; 0 hr, Replicate 2) | Peak Area Ratio (Analyte/incubation sample) ([1]; 24 hr, Replicate 1) | Peak Area Ratio (Analyte/incubation sample) ([1]; 24 hr, Replicate 2) | % Remaining after 24-hr Incubation at 37° C. ([1]; human, plasma, 24 h, 10 μM) [%] | Peak Area Ratio (Analyte/incubation sample) ([2]; Replicate 1) | Peak Area Ratio (Analyte/incubation sample) ([2]; Replicate 2) | % Remaining after 24-hr Incubation at 37° C. ([2]; Average) [%] | % Remaining after 24-hr Incubation at 37° C. ([2]; Replicate 1) [%] | % Remaining after 24-hr Incubation at 37° C. ([2]; Replicate 2) [%] | substrate of CYP1A2 liver enzyme (CYP1A2) | solubility [3] | substrate of CYP3A liver enzyme (CYP3A) |
| --- | --- | --- | --- | --- | --- | --- | --- | --- | --- | --- | --- | --- | --- |
| CCN(CC)CCOC(=O)c1ccc(N)cc1 [Procaine, procaine] | 0.311 | 0.451 | 0.0 | 0.0 | 0.0 | 0.413 | 0.419 | 109 | 108.40 | 109.97 | – | – | – |
| Nc1cccc2c1C(=O)N(C1CCC(=O)NC1=O)C2=O (stereo not shown) [pomalidomide] | – | – | – | – | – | – | – | – | – | – | substrate | about 0.01 mg/mL | substrate |
